Data: PMC5643462, “Encrypted Antimicrobial Peptides from Plant Proteins” (Scientific Reports, 2017)
In brackets after ≈: the same amount, converted by molar mass.

Tests used:
[1] = test system: Escherichia coli; test: Microbicidal activity (minimal killing concentration), plating on agar; format: cell-based, Escherichia coli ATCC 25922; details: 10 µL of MIC and raising concentrations up to 256 µM plated on Mueller-Hinton agar; 37 °C, 24 h; no growth; mean ± SD, 3 biological replicates
Experimental: (§1) The microbicidal activity of the IAPS was also evaluated. […] YPD agar and Mueller-Hinton agar were used for fungi/yeasts and bacteria, respectively. Meanwhile, susceptibility microplates were incubated again to evaluate if there would be any growing after a longer period. For both approaches, the minimal killing concentration (MKC) was defined as the concentration that no growth was observed after incubation. Three biological replicates were performed for each test.
(§2) Supplementary Material 07, Table S5
(§3) Table S5. Microorganisms and growth conditions.
(§4) Microorganisms Incubation Incubation Starting cell Growth Medium

[2] = test system: Bacillus subtilis; test: as above; format: cell-based, Bacillus subtilis ATCC 23857; details: 10 µL of MIC and raising concentrations up to 256 µM plated on Mueller-Hinton agar; 37 °C, 24 h; no growth; mean ± SD, 3 biological replicates
Experimental: as §1, §2, §3, §4

[3] = test system: Erwinia carotovora; test: as above; format: cell-based; details: 10 µL of MIC and raising concentrations up to 256 µM plated on Mueller-Hinton agar; 28 °C, 24 h; no growth; mean ± SD, 3 biological replicates
Experimental: as §1, §2, §3, §4
(§5) Temperature (°C) Time (h) concentration
(§6) Erwinia carotovora 28 24 5.0 x 10 5 Mueller -Hinton
(§7) Xanthomonas campestris pv. citri 28 24 5.0 x 10 5 Mueller -Hinton
(§8) Pseudomonas syringae pv. tabaci 28 24 5.0 x 10 5 Mueller -Hinton

[4] = test system: Pseudomonas syringae pv. tabaci; test: as above; format: cell-based; details: 10 µL of MIC and raising concentrations up to 256 µM plated on Mueller-Hinton agar; 28 °C, 24 h; no growth; mean ± SD, 3 biological replicates
Experimental: as §1, §2, §3, §4, §5, §6, §7, §8

[5] = test system: Xanthomonas campestris; test: as above; format: cell-based, Xanthomonas campestris pv. citri; details: 10 µL of MIC and raising concentrations up to 256 µM plated on Mueller-Hinton agar; 28 °C, 24 h; no growth; mean ± SD, 3 biological replicates
Experimental: as §1, §2, §3, §4, §5, §6, §7, §8

[6] = test system: Pseudomonas aeruginosa; test: as above; format: cell-based, Pseudomonas aeruginosa ATCC 27853; details: 10 µL of MIC and raising concentrations up to 256 µM plated on Mueller-Hinton agar; 37 °C, 24 h; no growth; mean ± SD, 3 biological replicates
Experimental: as §1, §2, §3, §4

[7] = test system: Erwinia carotovora; test: microbe, parasite or virus in culture; details: 24 h
Experimental: (§9) The susceptibility test of microorganisms was performed to evaluate the inhibitory activity of the IAPs. Protocols M7-A10[50], M27-A3[51] and M38-A2[52] from Clinical & Laboratory Standards Institute (CLSI) were used for bacteria, yeasts and filamentous fungi tests, respectively. Briefly, different concentration of IAPs (256-0.5 µM) were tested against 16 microorganisms, in a final volume of 100 µL. Media conditions, final cell concentration and incubation conditions are presented in Supplementary Material 07, Table S5. Three biological repetitions, with 2 technical replicates each, were performed for each test, on polystyrene flat-bottom 96 wells microplates. The minimum inhibitory concentration (MIC) was defined as the concentration that no cells/hyphae were detected when visualized by optical microscopy.
as §2, §3

[8] = test system: Bacillus subtilis; test: microbe, parasite or virus in culture
Experimental: as §9, §2, §3

[9] = test system: Bacillus cereus; test: microbe, parasite or virus in culture; details: Bacillus cereus, ATCC14579, 24 h, read-out: Minimum inhibitory concentration, Bacillus cereus
Experimental: as §9, §2, §3

[10] = test system: Pseudomonas aeruginosa; test: microbe, parasite or virus in culture; details: Pseudomonas aeruginosa, ATCC27853, 24 h, read-out: Minimum inhibitory concentration, Pseudomonas aeruginosa
Experimental: as §9, §2, §3

[11] = test system: Pseudomonas syringae pv. tabaci; test: microbe, parasite or virus in culture; details: 24 h
Experimental: as §9, §2, §3

[12] = test system: Xanthomonas campestris; test: microbe, parasite or virus in culture; details: 24 h
Experimental: as §9, §2, §3

[13] = test system: Escherichia coli; test: microbe, parasite or virus in culture
Experimental: as §9, §2, §3

[14] = test system: Staphylococcus aureus; test: microbe, parasite or virus in culture
Experimental: as §9, §2, §3

[15] = test system: Staphylococcus aureus; test: Microbicidal activity (minimal killing concentration), plating on agar; format: cell-based, Staphylococcus aureus ATCC 25923; details: 10 µL of MIC and raising concentrations up to 256 µM plated on Mueller-Hinton agar; 37 °C, 24 h; no growth; mean ± SD, 3 biological replicates
Experimental: as §1, §2, §3, §4, §5, §6, §7, §8

[16] = test system: Bacillus cereus; test: as above; format: cell-based, Bacillus cereus ATCC 14579; details: 10 µL of MIC and raising concentrations up to 256 µM plated on Mueller-Hinton agar; 37 °C, 24 h; no growth; mean ± SD, 3 biological replicates
Experimental: as §1, §2, §3, §4

[17] = test system: Fusarium oxysporum; test: microbe, parasite or virus in culture; details: Fusarium oxysporum, 48 h, pH 7, read-out: Minimum inhibitory concentration, Fusarium oxysporum
Experimental: as §9, §2, §3

[18] = test system: Ramularia areola; test: microbe, parasite or virus in culture; details: Ramulariopsis gossypii, 120 h, pH 7, read-out: Minimum inhibitory concentration, Ramularia areola
Experimental: as §9, §2, §3

[19] = test system: Cryptococcus neoformans; test: microbe, parasite or virus in culture; details: Cryptococcus neoformans, ATCC28957, 72 h, pH 7, read-out: Minimum inhibitory concentration, Cryptococcus neoformans
Experimental: as §9, §2, §3

[20] = test system: Trichoderma asperellum; test: microbe, parasite or virus in culture; details: Trichoderma asperellum, 48 h, pH 7, read-out: Minimum inhibitory concentration, Trichoderma asperellum
Experimental: as §9, §2, §3

[21] = test system: Candida albicans; test: microbe, parasite or virus in culture; details: Candida albicans, ATCC90028, 48 h, pH 7, read-out: Minimum inhibitory concentration, Candida albicans
Experimental: as §9, §2, §3

[22] = Mueller-Hinton, 28 °C, start 5.0 x 10^5 cells, 256-0.5 µM, mean ± SD of 3 biological repetitions (SD 0 not displayed), N/A = no antimicrobial activity observed

CNC(C)C1CCC(N)C(OC2C(N)CC(N)C(OC3OCC(C)(O)C(NC)C3O)C2O)O1 (stereo not drawn) [Gentamicin]
Minimum microbicidal concentration, Escherichia coli [1]: 0.52 ± 0.0 µM
Minimum microbicidal concentration, Bacillus subtilis [2]: 0.033 ± 0.0 µM
Minimum microbicidal concentration, Erwinia carotovora [3]: 0.53 ± 0.0 µM
Minimum microbicidal concentration, Pseudomonas syringae pv. tabaci [4]: 0.52 ± 0.0 µM
Minimum microbicidal concentration, Xanthomonas campestris [5]: 0.53 ± 0.0 µM
Minimum microbicidal concentration, Pseudomonas aeruginosa [6]: 0.52 ± 0.0 µM
MIC ([7]; Pectobacterium carotovorum, read-out: Minimum inhibitory concentration, Erwinia carotovora): 0.53 µM (≈ 0.253 µg/mL)
MIC ([8]; Bacillus subtilis, ATCC23857, 24 h, read-out: Minimum inhibitory concentration, Bacillus subtilis): 0.033 µM (≈ 0.0158 µg/mL)
MIC [9]: 8.37 µM (≈ 4 µg/mL)
MIC [10]: 0.13 µM (≈ 0.0621 µg/mL)
MIC ([11]; Pseudomonas syringae, read-out: Minimum inhibitory concentration, Pseudomonas syringae pv. tabaci): 0.52 µM (≈ 0.248 µg/mL)
MIC ([12]; Xanthomonas campestris, read-out: Minimum inhibitory concentration, Xanthomonas campestris): 0.53 µM (≈ 0.253 µg/mL)
MIC ([13]; Escherichia coli, ATCC25922, 24 h, read-out: Minimum inhibitory concentration, Escherichia coli): 0.52 µM (≈ 0.248 µg/mL)
MIC ([14]; Staphylococcus aureus, ATCC25923, 24 h, read-out: Minimum inhibitory concentration, Staphylococcus aureus): 0.26 µM (≈ 0.124 µg/mL)
Minimum microbicidal concentration, Staphylococcus aureus [15]: 0.52 ± 0.0 µM
Minimum microbicidal concentration, Bacillus cereus [16]: 8.37 ± 0.0 µM

CC1(C)S[C@@H]2[C@H](NC(=O)[C@H](N)c3ccccc3)C(=O)N2[C@H]1C(=O)O [Ampicilin]
Minimum microbicidal concentration, Escherichia coli [1]: 10.77 ± 0.0 µM
Minimum microbicidal concentration, Bacillus subtilis [2]: 0.08 ± 0.0 µM
Minimum microbicidal concentration, Erwinia carotovora [3]: 2.70 ± 0.0 µM
Minimum microbicidal concentration, Pseudomonas syringae pv. tabaci [4]: 10.77 ± 0.0 µM
Minimum microbicidal concentration, Xanthomonas campestris [5]: 5.38 ± 0.0 µM
Minimum inhibitory concentration, Erwinia carotovora [7, 22]: 1.35 µM (≈ 0.472 µg/mL)
Minimum inhibitory concentration, Bacillus subtilis ([8]; ATCC 23857, Mueller-Hinton, 37 °C, 24 h, start 5.0 x 10^5 cells, 256-0.5 µM, mean ± SD of 3 biological repetitions (SD 0 not displayed), N/A = no antimicrobial activity observed): 0.08 µM (≈ 0.028 µg/mL)
Minimum inhibitory concentration, Pseudomonas syringae pv. tabaci [11, 22]: 2.69 µM (≈ 0.94 µg/mL)
Minimum inhibitory concentration, Xanthomonas campestris ([12]; pv. citri, Mueller-Hinton, 28 °C, start 5.0 x 10^5 cells, 256-0.5 µM, mean ± SD of 3 biological repetitions (SD 0 not displayed), N/A = no antimicrobial activity observed): 1.35 µM (≈ 0.472 µg/mL)
Minimum inhibitory concentration, Escherichia coli ([13]; ATCC 25922, Mueller-Hinton, 37 °C, 24 h, start 5.0 x 10^5 cells, 256-0.5 µM, mean ± SD of 3 biological repetitions (SD 0 not displayed), N/A = no antimicrobial activity observed): 10.77 µM (≈ 3.76 µg/mL)
Minimum inhibitory concentration, Staphylococcus aureus ([14]; ATCC 25923, Mueller-Hinton, 37 °C, 24 h, start 5.0 x 10^5 cells, 256-0.5 µM, mean ± SD of 3 biological repetitions (SD 0 not displayed), N/A = no antimicrobial activity observed): 5.38 µM (≈ 1.88 µg/mL)
Minimum microbicidal concentration, Staphylococcus aureus [15]: 10.77 ± 0.0 µM

C[C@@H]1[C@H](O)[C@@H](C)/C=C/C=C/C=C/C=C/C=C/C=C/C=C/[C@H](O[C@@H]2O[C@H](C)[C@@H](O)[C@H](N)[C@@H]2O)C[C@@H]2O[C@](O)(C[C@@H](O)C[C@@H](O)[C@H](O)CC[C@@H](O)C[C@@H](O)CC(=O)O[C@H]1C)C[C@H](O)[C@H]2C(=O)O [Amphotericin B]
MIC [17]: 0.54 µM (≈ 0.499 µg/mL)
MIC [18]: 0.54 µM (≈ 0.499 µg/mL)
MIC [19]: 0.13 µM (≈ 0.12 µg/mL)
MIC [20]: 2.16 µM (≈ 2 µg/mL)
MIC [21]: 0.27 µM (≈ 0.25 µg/mL)
